# Data: patent publication US20230165252A1, “ACTIVE COMPOUND COMBINATIONS” (Bayer Aktiengesellschaft, priority 2020, published 2023)
# Like-named read-outs stand apart in the source and are kept apart here.
# Key:
# Assay type in all cases: cell-based
# Parastagonospora nodorum = test: in vitro-Test with Parastagonospora nodorum (microtiter growth inhibition)
# Description: (§1) The degree of efficacy expressed in % is denoted: 0% means an efficacy, which corresponds to that of the control, while an efficacy of 100% means that no disease is observed.
# (§2) If the actual fungicidal activity exceeds the calculated value, then the activity of the combination is super-additive, i.e. a synergistic effect exists. In this case, the efficacy, which was actually observed, must be greater than the value for the expected efficacy (E), that was calculated from the abovementioned formula.
# (§3) Example: In Vitro-Test with Fungal Microorganisms
# (§4) Wells of 96-well microtiter plates are filled with 10 μl of a preparation of test compound or compound combination in methanol+emulsifier alkylaryl-polyglycol-ether. Thereafter, the solvent is evaporated in a hood. At the next step, 100 μl of liquid potato dextrose medium is given into each well, that has been amended with an appropriate concentration of spores or mycelium suspension of the test fungus.
# (§5) With the aid of a photometer, the extinction in all wells is measured at the wavelength of 620 nm.
# (§6) The microtiter plates are incubated at 20° C. and 85% relative humidity. The inhibition of growth is determined again photometrically 3-5 days after the application. Efficacy is calculated in relation to the untreated control, 0% efficacy means fungal growth as high as in untreated control while 100% efficacy means no fungal growth is measured.
# [1] = tested on: Colletotrichum lindemuthianum; test: in vitro-Test with Colletotrichum lindemuthianum (microtiter growth inhibition)
# Description: as §1, §2, §3, §4, §5, §6
# Botrytis cinerea = test: in vitro-Test with Botrytis cinerea (microtiter growth inhibition); settings: for Efficacy: applied alone; for inhibition of growth at 0.04 ppm: single active at 0.04 ppm; for inhibition of growth at 0.2 ppm: single active at 0.2 ppm
# Summary of the method: (§7)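 Photometric extinction at 620 nm, measured at setup and again 3-5 days later, gives growth inhibition; 0% efficacy equals untreated-control growth, 100% means no growth. Compounds were applied in methanol/emulsifier, solvent evaporated, then spore or mycelium suspension in potato dextrose broth added; incubation at 20° C., 85% RH.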
# Diaporthe citri = test: in vitro-Test with Diaporthe citri (microtiter growth inhibition); settings: Diaporthe citri, read-out: Efficacy
# Summary of the method: as §7
# Fusarium culmorum = test: in vitro-Test with Fusarium culmorum (microtiter growth inhibition); settings: Fusarium culmorum, read-out: Efficacy
# Description: as §1, §2, §3, §4, §5, §6
# [2] = tested on: Ustilago segetum var. avenae; test: in vitro-Test with Ustilago segetum var. avenae (microtiter growth inhibition); settings: read-out: Efficacy %
# Description: as §1, §2, §3, §4, §5, §6
# Cordana musae = test: in vitro-Test with Cordana musae (microtiter growth inhibition); settings: Neocordana musae
# Description: as §1, §2, §3, §4, §5, §6
# Cercospora beticola = test: in vitro-Test with Cercospora beticola (microtiter growth inhibition); settings: Cercospora beticola
# Description: as §1, §2, §3, §4, §5, §6
# Alternaria alternate = test: in vitro-Test with Alternaria alternate (microtiter growth inhibition)
# Summary of the method: as §7
# [3] = Parastagonospora nodorum, read-out: Efficacy %
# [4] = Colletotrichum lindemuthianum, read-out: Efficacy %
# [5] = Botrytis cinerea, read-out: Efficacy %
# [6] = Parastagonospora nodorum, compound alone, 0.04 ppm, read-out: Efficacy %
# [7] = Parastagonospora nodorum, compound alone, 0.2 ppm, read-out: Efficacy %
# [8] = Parastagonospora nodorum, compound alone, 1.0 ppm, read-out: Efficacy %
# [9] = Colletotrichum lindemuthianum, applied alone at 0.2 ppm, read-out: Efficacy %
structure (smiles),measurement,setting,value
N#Cc1c[nH]cc1-c1cccc2c1OC(F)(F)O2 [(13.001) fludioxonil],inhibition of growth at 1 ppm,Parastagonospora nodorum; [3],34%
same,inhibition of growth at 5 ppm,Parastagonospora nodorum; [3],75%
same,Efficacy %,"Parastagonospora nodorum; compound alone, 0.04 ppm",0%
same,Efficacy %,"Parastagonospora nodorum; compound alone, 0.2 ppm",0%
same,inhibition of growth at 0.04 ppm,[1]; [4],8%
same,inhibition of growth at 0.2 ppm,[1]; [4],68%
same,inhibition of growth at 1 ppm,[1]; [4],81%
same,inhibition of growth at 5 ppm,[1]; [4],44%
same,Efficacy %,[1]; applied alone at 0.2 ppm,60%
N#Cc1ccccc1NC(=O)c1snc(Cl)c1Cl [(6.002) isotianil],Efficacy %,Botrytis cinerea; single active at 4 ppm,0%
same,Efficacy %,Botrytis cinerea; single active at 20 ppm,0%
same,Efficacy %,Botrytis cinerea; single active at 100 ppm,0%
same,Efficacy %,[1]; applied alone at 0.8 ppm,7%
same,Efficacy %,[1]; applied alone at 4 ppm,19%
same,Efficacy %,[1]; applied alone at 20 ppm,0%
same,Efficacy %,[1]; applied alone at 100 ppm,17%
CCO[PH](=O)[O-].CCO[PH](=O)[O-].CCO[PH](=O)[O-].[Al+3] [(15.012) fosetylaluminium],Efficacy %,[1]; applied alone at 4 ppm,0%
same,Efficacy %,[1]; applied alone at 20 ppm,22%
same,Efficacy %,[1]; applied alone at 100 ppm,70%
N#Cc1c[nH]cc1-c1cccc2c1OC(F)(F)O2 [fludioxonil],inhibition of growth at 0.04 ppm,Diaporthe citri,12%
same,inhibition of growth at 0.2 ppm,Diaporthe citri,0%
same,inhibition of growth at 1 ppm,Diaporthe citri,45%
same,inhibition of growth at 5 ppm,Diaporthe citri,10%
same,inhibition of growth at 0.04 ppm,Fusarium culmorum,0%
same,inhibition of growth at 0.08 ppm,Fusarium culmorum; 0.08 ppm,1%
same,inhibition of growth at 0.2 ppm,Fusarium culmorum; 0.2 ppm,0%
same,inhibition of growth at 0.4 ppm,Fusarium culmorum,1%
same,inhibition of growth at 1 ppm,Fusarium culmorum,91%
same,inhibition of growth at 2 ppm,Fusarium culmorum,2%
same,inhibition of growth at 5 ppm,Fusarium culmorum; 5.0 ppm,100%
same,inhibition of growth at 10 ppm,Fusarium culmorum,11%
same,inhibition of growth at 0.04 ppm,[2],10%
same,inhibition of growth at 0.2 ppm,[2],60%
same,inhibition of growth at 1 ppm,[2],100%
same,inhibition of growth at 5 ppm,[2],100%
same,inhibition of growth at 1 ppm,"Cordana musae; read-out: Efficacy, single substance, 1.0 ppm",20%
same,inhibition of growth at 5 ppm,"Cordana musae; read-out: Efficacy, single substance, 5.0 ppm",44%
same,Efficacy,Botrytis cinerea; 0.04 ppm,12%
same,Efficacy,Botrytis cinerea; 0.2 ppm,99%
same,Efficacy,Botrytis cinerea; 1.0 ppm,100%
same,Efficacy,Botrytis cinerea; 5.0 ppm,100%
same,inhibition of growth at 5 ppm,"Cercospora beticola; read-out: Efficacy %, alone, 5.0 ppm",95%
same,inhibition of growth at 0.04 ppm,"Alternaria alternate; Alternaria, read-out: Efficacy %, 0.04 ppm, alone",0%
same,inhibition of growth at 0.2 ppm,"Alternaria alternate; Alternaria, read-out: Efficacy %, 0.2 ppm, alone",0%
same,inhibition of growth at 1 ppm,"Alternaria alternate; Alternaria, read-out: Efficacy %, 1.0 ppm, alone",87%
same,inhibition of growth at 5 ppm,"Alternaria alternate; Alternaria, read-out: Efficacy %, 5.0 ppm, alone",100%
same,inhibition of growth at 0.04 ppm,"Alternaria alternate; Alternaria, read-out: Efficacy, applied alone, 0.04 ppm",0%
same,inhibition of growth at 0.2 ppm,"Alternaria alternate; Alternaria, read-out: Efficacy, applied alone, 0.2 ppm",0%
same,inhibition of growth at 1 ppm,"Alternaria alternate; Alternaria, read-out: Efficacy, applied alone, 1.0 ppm",96%
same,inhibition of growth at 5 ppm,"Alternaria alternate; Alternaria, read-out: Efficacy, applied alone, 5.0 ppm",100%
"CCN(C)C=Nc1cc(C)c(Oc2ccccc2F)cc1Cl [Compound 15.064, N′-[2-chloro-4-(2-fluorophenoxy)-5-methylphenyl]-N-ethyl-N-methylimidoformamide]",inhibition of growth at 0.08 ppm,"Diaporthe citri; applied alone, 0.080 ppm",11%
same,inhibition of growth at 0.4 ppm,"Diaporthe citri; applied alone, 0.4 ppm",2%
same,inhibition of growth at 2 ppm,"Diaporthe citri; applied alone, 2 ppm",5%
same,inhibition of growth at 0.4 ppm,Fusarium culmorum,0%
same,inhibition of growth at 2 ppm,Fusarium culmorum,1%
same,inhibition of growth at 10 ppm,Fusarium culmorum,9%
same,inhibition of growth at 0.4 ppm,[2]; compound alone,0%
same,inhibition of growth at 2 ppm,[2]; compound alone,41%
same,inhibition of growth at 10 ppm,[2]; compound alone,100%
same,inhibition of growth at 0.08 ppm,"[2]; single compound, 0.08 ppm",1%
same,inhibition of growth at 0.4 ppm,[2]; single compound,2%
same,inhibition of growth at 2 ppm,[2]; single compound,68%
same,inhibition of growth at 10 ppm,[2]; single compound,100%
same,inhibition of growth at 0.08 ppm,"Cordana musae; single substance, 0.080 ppm, read-out: Efficacy",0%
same,inhibition of growth at 0.4 ppm,"Cordana musae; single substance, 0.4 ppm, read-out: Efficacy",18%
same,inhibition of growth at 2 ppm,"Cordana musae; single substance, 2 ppm, read-out: Efficacy",14%
same,inhibition of growth at 10 ppm,"Cordana musae; single substance, 10 ppm, read-out: Efficacy",5%
same,inhibition of growth at 0.04 ppm,Botrytis cinerea; [5],0%
same,inhibition of growth at 0.2 ppm,Botrytis cinerea; [5],100%
same,inhibition of growth at 1 ppm,"Botrytis cinerea; Botrytis cinerea, single active at 1.0 ppm, read-out: Efficacy %",100%
same,inhibition of growth at 5 ppm,"Botrytis cinerea; Botrytis cinerea, single active at 5.0 ppm, read-out: Efficacy %",100%
same,Efficacy,Botrytis cinerea; 0.080 ppm,0%
same,Efficacy,Botrytis cinerea; 0.4 ppm,0%
same,Efficacy,Botrytis cinerea; 2 ppm,31%
same,inhibition of growth at 0.08 ppm,"Cercospora beticola; alone, 0.08 ppm, read-out: Efficacy %",0%
same,inhibition of growth at 0.4 ppm,"Cercospora beticola; alone, 0.4 ppm, read-out: Efficacy %",0%
same,inhibition of growth at 10 ppm,"Cercospora beticola; alone, 10 ppm, read-out: Efficacy %",14%
CON=C(C(=O)OC)c1ccccc1CON=C(C)c1cccc(C(F)(F)F)c1 [trifloxystrobin],inhibition of growth at 0.008 ppm,"Diaporthe citri; applied alone, 0.008 ppm",82%
same,inhibition of growth at 0.04 ppm,"Diaporthe citri; applied alone, 0.04 ppm",94%
same,inhibition of growth at 0.2 ppm,"Diaporthe citri; applied alone, 0.2 ppm",97%
same,inhibition of growth at 1 ppm,"Diaporthe citri; applied alone, 1.0 ppm",98%
same,inhibition of growth at 0.008 ppm,Fusarium culmorum; 0.008 ppm,0%
same,inhibition of growth at 0.04 ppm,Fusarium culmorum,0%
same,inhibition of growth at 1 ppm,Fusarium culmorum,11%
same,inhibition of growth at 0.008 ppm,"[2]; single compound, 0.008 ppm",16%
same,inhibition of growth at 0.04 ppm,"[2]; single compound, 0.04 ppm",40%
same,inhibition of growth at 0.2 ppm,"[2]; single compound, 0.2 ppm",53%
same,inhibition of growth at 0.008 ppm,"Cordana musae; single substance, 0.008 ppm, read-out: Efficacy",29%
same,inhibition of growth at 0.2 ppm,"Cordana musae; single substance, 0.2 ppm, read-out: Efficacy",66%
same,inhibition of growth at 0.008 ppm,"Cercospora beticola; alone, 0.008 ppm, read-out: Efficacy %",98%
same,inhibition of growth at 0.2 ppm,"Cercospora beticola; alone, 0.2 ppm, read-out: Efficacy %",95%
same,Efficacy,Parastagonospora nodorum; 0.008 ppm,38%
same,Efficacy,Parastagonospora nodorum; 0.04 ppm,63%
same,Efficacy,Parastagonospora nodorum; 0.2 ppm,78%
same,Efficacy,Parastagonospora nodorum; 1.0 ppm,79%
same,inhibition of growth at 0.008 ppm,"Alternaria alternate; Alternaria, 0.008 ppm, alone, read-out: Efficacy %",56%
same,inhibition of growth at 0.04 ppm,"Alternaria alternate; Alternaria, 0.04 ppm, alone, read-out: Efficacy %",84%
same,inhibition of growth at 0.2 ppm,"Alternaria alternate; Alternaria, 0.2 ppm, alone, read-out: Efficacy %",90%
same,inhibition of growth at 1 ppm,"Alternaria alternate; Alternaria, 1.0 ppm, alone, read-out: Efficacy %",98%
same,inhibition of growth at 0.04 ppm,"Alternaria alternate; Alternaria, applied alone, 0.04 ppm, read-out: Efficacy",82%
same,inhibition of growth at 0.2 ppm,"Alternaria alternate; Alternaria, applied alone, 0.2 ppm, read-out: Efficacy",87%
same,Efficacy,"Alternaria alternate; applied alone, 0.008 ppm",51%
CC(C)(C)C(O)(CCc1ccc(Cl)cc1)Cn1cncn1 (centres unmarked) [(1.021) tebuconazole],inhibition of growth at 0.008 ppm,"Botrytis cinerea; Botrytis cinerea, single active at 0.008 ppm, read-out: Efficacy %",2%
same,inhibition of growth at 0.04 ppm,Botrytis cinerea; [5],5%
same,inhibition of growth at 0.2 ppm,Botrytis cinerea; [5],39%
same,inhibition of growth at 0.04 ppm,Parastagonospora nodorum; [6],10%
same,inhibition of growth at 0.2 ppm,Parastagonospora nodorum; [7],79%
same,inhibition of growth at 1 ppm,Parastagonospora nodorum; [8],98%
same,inhibition of growth at 0.008 ppm,"[1]; Colletotrichum lindemuthianum, applied alone at 0.008 ppm, read-out: Efficacy %",7%
same,inhibition of growth at 0.04 ppm,"[1]; Colletotrichum lindemuthianum, applied alone at 0.04 ppm, read-out: Efficacy %",20%
same,inhibition of growth at 0.2 ppm,[1]; [9],2%
same,inhibition of growth at 1 ppm,"[1]; Colletotrichum lindemuthianum, applied alone at 1.0 ppm, read-out: Efficacy %",28%
OC(Cc1ccccc1Cl)(Cn1nc[nH]c1=S)C1(Cl)CC1 (centres unmarked) [(1.018) prothioconazole],inhibition of growth at 0.04 ppm,Botrytis cinerea; [5],63%
same,inhibition of growth at 0.2 ppm,Botrytis cinerea; [5],100%
same,inhibition of growth at 0.008 ppm,"Parastagonospora nodorum; Parastagonospora nodorum, compound alone, 0.008 ppm, read-out: Efficacy %",28%
same,inhibition of growth at 0.04 ppm,Parastagonospora nodorum; [6],91%
same,inhibition of growth at 0.2 ppm,Parastagonospora nodorum; [7],99%
same,inhibition of growth at 1 ppm,Parastagonospora nodorum; [8],100%
same,Efficacy %,"Parastagonospora nodorum; compound alone, 0.2 ppm",99%
same,inhibition of growth at 0.2 ppm,[1]; [9],73%
O=C(NCCc1ncc(C(F)(F)F)cc1Cl)c1ccccc1C(F)(F)F [(2.005) fluopyram],inhibition of growth at 0.8 ppm,"Botrytis cinerea; Botrytis cinerea, single active at 0.8 ppm, read-out: Efficacy %",66%
same,inhibition of growth at 4 ppm,"Botrytis cinerea; Botrytis cinerea, single active at 4 ppm, read-out: Efficacy %",64%
same,inhibition of growth at 0.8 ppm,"Parastagonospora nodorum; Parastagonospora nodorum, compound alone, 0.8 ppm, read-out: Efficacy %",32%
same,inhibition of growth at 4 ppm,"Parastagonospora nodorum; Parastagonospora nodorum, compound alone, 4 ppm, read-out: Efficacy %",41%
same,inhibition of growth at 20 ppm,"Parastagonospora nodorum; Parastagonospora nodorum, compound alone, 20 ppm, read-out: Efficacy %",65%
same,inhibition of growth at 0.8 ppm,"[1]; Colletotrichum lindemuthianum, applied alone at 0.8 ppm, read-out: Efficacy %",14%
same,inhibition of growth at 4 ppm,"[1]; Colletotrichum lindemuthianum, applied alone at 4 ppm, read-out: Efficacy %",7%
same,inhibition of growth at 20 ppm,"[1]; Colletotrichum lindemuthianum, applied alone at 20 ppm, read-out: Efficacy %",19%
